Test results reported in US9238658B2, “Substituted piperidinyl-carboxamide derivatives useful as SCD 1 inhibitors” (Janssen Pharmaceutica NV, priority 2011, dated 2016).
Where “and” joins values, the source holds several entries; their conditions need not be identical. Equal entries are not always repeated.

How the values were obtained:
[1] = molecular target: SCD1 (Rattus norvegicus (Rat), UniProt P07308); test: SCD1 enzymatic assay in rat liver microsomes (RLM); format: biochemical; conditions: for inhibition at 1 µM / % Inh. @ 1 μM: 1 μM test compound
SCD1 (Rattus norvegicus (Rat), UniProt P07308), sequence (P07308 whole entry): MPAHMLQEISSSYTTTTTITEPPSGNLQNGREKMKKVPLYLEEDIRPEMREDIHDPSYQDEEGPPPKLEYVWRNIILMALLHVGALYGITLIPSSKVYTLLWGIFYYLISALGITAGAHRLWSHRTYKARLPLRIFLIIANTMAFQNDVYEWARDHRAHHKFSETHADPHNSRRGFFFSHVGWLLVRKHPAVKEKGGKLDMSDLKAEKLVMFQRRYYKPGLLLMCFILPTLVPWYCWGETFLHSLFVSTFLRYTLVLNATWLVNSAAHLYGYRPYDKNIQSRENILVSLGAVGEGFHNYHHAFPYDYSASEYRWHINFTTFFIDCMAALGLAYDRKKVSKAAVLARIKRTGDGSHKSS
Experimental: Step 1: Preparation of Rat Liver Microsome (RLM)
Sprague Dawley rats from Charles River (200-225 g) underwent 2-cycle of fast-re-feeding (24-hour fast followed by 24-hour feeding with fat-free high carbohydrate diet, Research Diet, D00042802). The livers were removed and homogenized 1:4 (w/v) with pre-chilled, homogenizing buffer (10 mM Tris-HCl, 0.25 M sucrose, 1 mM EDTA, pH 7.4, supplemented with protease inhibitor cocktail). The homogenate was spun at 12,000×g for 15 min at 4° C. The supernatant was then re-centrifuged at 100,000×g for 60 min at 4° C. The pellet was re-suspended in 2 ml pre-chilled […] potassium phosphate buffer, pH 7.2, 10 mM EDTA at a concentration of 20 mg/ml. The resulting rat liver microsome (RLM) preparation was stored at […].
Step 2: SCD1 Enzymatic Assay in RLM:
The SCD1 enzymatic assay was done in a volume of 50 μL using 10 μg of RLM (prepared as described above) in a 96-well polypropylene plate (enzyme reaction buffer contains 0.1 M K-Phosphate Buffer, 10 mM ATP, 6 mM MgCl2, 1 mM CoA, 1 mM β-NADH, 1.6 mM L-glutathione, 20 μM Stearoyl-CoA). Stearoyl-[9,10-^3H]—CoA (ARC-0390, 1 mCi/mL, 60 Ci/mmol,) was added at a final concentration of 2 μCi/mL. Test compound was then added to the reaction mixture at the selected concentration. After incubation at room temperature for 2 hours, 5 μL 1 N HCl was added to stop the reaction, followed by addition of 25 μL of 10% charcoal. The reaction mixture was then transferred to 96-well Multiscreen plate (Millipore, Cat# MSFCN6B50). [^3H2O] was collected into Opti-plate (PE, Cat #6005290) by centrifuge, at 1,000 rpm for 2 minutes. 150 μL Microscint 40 (PE, cat #6013641) was then added to each well and counted on Topcount for [^3H] counts per minute (cpm). The measured cpm values were fitted with Sigmoidal dose-response curve fit with Graphpad Prism.

[2] = molecular target: SCD1 (Homo sapiens (Human), UniProt O00767); test: SCD1 13C-palmitic acid assay in A431 cells; format: cell-based; conditions: read-out: A431 cells 13C-PA IC50
SCD1 (Homo sapiens (Human), UniProt O00767), sequence (O00767 whole entry): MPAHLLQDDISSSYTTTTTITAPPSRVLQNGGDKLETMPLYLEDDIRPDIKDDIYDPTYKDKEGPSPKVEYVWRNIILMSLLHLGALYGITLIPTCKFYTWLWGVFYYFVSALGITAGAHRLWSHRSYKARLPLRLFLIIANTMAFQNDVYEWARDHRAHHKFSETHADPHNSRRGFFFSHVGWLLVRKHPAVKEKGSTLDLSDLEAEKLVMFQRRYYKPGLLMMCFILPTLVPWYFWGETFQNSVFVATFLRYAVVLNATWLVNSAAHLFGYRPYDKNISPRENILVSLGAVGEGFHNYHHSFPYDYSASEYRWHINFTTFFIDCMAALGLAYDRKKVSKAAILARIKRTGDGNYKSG
Experimental: Human epithelial carcinoma A431 cells were seeded at 100,000 cells/well in complete growth medium (DMEM, Cellgro #10-013-CM, 4.5 g/L glucose, 10% FBS) in the presence of 0.05 mg/mL human insulin (Hannas Pharmaceutical Supply Co Inc, Humanlin 100 U/ml, 4 mg/ml) in 96-well tissue culture plate. […] The cells were then returned to the tissue culture incubator (37° C. and 5% CO2) for 4 hrs. At the end of incubation, the cells were washed three times with 200 μL/well Hanks buffer (HBSS) and then stored at −20° C. until extraction.
For fatty acid extraction, after thawing out the plates, 40 μL of 1N KOH (containing 5 μM of internal standard 7,7,8,8-D4 palmitate) was added to each well and cell plates were incubated at 37° C. for 30 minutes. […] Acetonitrile (100 μL) was then added to extract fatty acids, followed by centrifugation at 3000 rpm for 10 minutes. 75 μL of extract was then transferred to a new glass vial in a 96-well cluster plate. 5 μL was injected for LC/MS analysis for detection of ^13C-palmitic acid and ^13C-palmitoleic acid. Formation of product ^13C-palmitoleic acid was determined as an index of SCD1 activity.
LC/MS analysis was performed as following. An Agilent 1100 Liquid Chromatographic System (Palo Alto, Calif.) consisting of a binary pump, a degasser and an autosampler was used. Separation of free fatty acids was performed on a Zorbax SB—C8 column (2.1×50 mm, particle size=3.5 μm). An isocratic elution was carried out with 10 mM triethylamine acetate in water:acetonitrile (3:7) at a flow rate of 0.3 mL/min. The column temperature was set at 30° C. and the sample injection volume was 5 μL. The LC run cycle was 4 min, A Micromass triple-quadrupole Quattro Micro mass […] (Waters, Beverly, Mass.) was interfaced with the LC system through a Z-spray electrospray ion source and was operated in the negative ion mode. Nitrogen was used as nebulizing gas, desolvation gas and cone curtain gas and argon was chosen as collision gas. The triple quadrupole MS source parameters were set as follows: capillary voltage, 3200V; cone voltage, 25V; extractor 2V, source temperature, 120° C.; desolvation temperature, 300° C.; cone gas flow, 50 L/h; and desolvation gas flow, 700 L/h. […] MassLynx software version 4.0 was used for system control and data processing. The signal of U—^13C-palmitoleic acid was normalized to an internal standard.

| SMILES | IC50 [1] | inhibition at 1 µM [1] [%] | IC50 [2] | % Inh. @ 1 μM [1] |
| --- | --- | --- | --- | --- |
| Cc1cnc(NC(=O)N2CCC(c3noc4ccc(F)cc34)CC2)s1 [Compound 14, 4-(5-fluorobenzo[d]isoxazol-3-yl)-N-(5-methylthiazol-2-yl)piperidine-1-carboxamide] | 303 nM | 86 | 169 nM |  |
| NC(=O)c1cccc(NC(=O)N2CCC(c3noc4ccc(F)cc34)CC2)c1 [Compound 17, N-(3-carbamoylphenyl)-4-(5-fluorobenzo[d]isoxazol-3-yl)piperidine-1-carboxamide] | 208 nM | 84 | 274 nM |  |
| NC(=O)c1cccc(NC(=O)N2CCC(n3ncc4c(F)cccc43)CC2)c1 [Compound 39, N-(3-carbamoylphenyl)-4-(4-fluoro-1H-indazol-1-yl)piperidine-1-carboxamide] | 88 nM and 59 nM | 86 | 288 nM and 149 nM | 86, 86% |
| CCOC(=O)Cc1csc(NC(=O)N2CCC(N3CCc4ccc(F)cc43)CC2)n1 [Compound 27, ethyl 2-(2-(4-(6-fluoroindolin-1-yl)piperidine-1-carboxamido)thiazol-4-yl)acetate] | 290 nM | 80 | > 1000 nM |  |
| O=C(Nc1ncc(CCO)s1)N1CCC(N2CCc3ccc(F)cc32)CC1 [Compound 50, 4-(6-fluoroindolin-1-yl)-N-(5-(2-hydroxyethyl)thiazol-2-yl)piperidine-1-carboxamide] | 8 nM | 102 | 6 nM |  |
| O=C(Nc1nc2c(s1)CN(CCO)CC2)N1CCC(N2CCc3ccc(F)cc32)CC1 [Compound 38, 4-(6-fluoroindolin-1-yl)-N-(5-(2-hydroxyethyl)-4,5,6,7-tetrahydrothiazolo[5,4-c]pyridin-2-yl)piperidine-1-carboxamide] | 770 nM |  | 440 nM |  |
| NC(=O)c1cccc(NC(=O)N2CCC(N3CCc4ccc(F)cc43)CC2)c1 [Compound 16, N-(3-carbamoylphenyl)-4-(6-fluoroindolin-1-yl)piperidine-1-carboxamide] | 20 nM | 96 | 93 nM |  |
| NC(=O)c1cnc(NC(=O)N2CCC(N3CCc4ccc(F)cc43)CC2)s1 [Compound 15, 2-(4-(6-fluoroindolin-1-yl)piperidine-1-carboxamido)thiazole-5-carboxamide] | 22 nM | 101 | 49 nM |  |
| O=C(Nc1nc2c(s1)CC(O)CC2)N1CCC(N2CCc3ccc(F)cc32)CC1 (centres unmarked) [Compound 33, 4-(6-fluoroindolin-1-yl)-N-(6-hydroxy-4,5,6,7-tetrahydrobenzo[d]thiazol-2-yl)piperidine-1-carboxamide] | 7 nM and 20 nM | 97 | < 1 nM and 1 nM | 99% |
| O=C1OCc2ccc(NC(=O)N3CCC(N4CCc5ccc(F)cc54)CC3)cc21 [Compound 47, 4-(6-fluoroindolin-1-yl)-N-(3-oxo-1,3-dihydroisobenzofuran-5-yl)piperidine-1-carboxamide] | 17 nM | 83 | 27 nM |  |
| O=C(CO)N1CCc2nc(NC(=O)N3CCC(N4CCc5ccc(F)cc54)CC3)sc2C1 [Compound 35, 4-(6-fluoroindolin-1-yl)-N-(5-(2-hydroxyacetyl)-4,5,6,7-tetrahydrothiazolo[5,4-c]pyridin-2-yl)piperidine-1-carboxamide] | 96 nM | 92 | 113 nM |  |
| O=C(Nc1nc2c(s1)CCCC2)N1CCC(N2CCc3ccc(F)cc32)CC1 [Compound 62, 4-(6-fluoroindolin-1-yl)-N-(4,5,6,7-tetrahydrobenzo[d]thiazol-2-yl)piperidine-1-carboxamide] | 347 nM | 68 | 76 nM |  |
| O=C(Nc1nc2c(s1)CC(O)CC2)N1CCC(c2noc3ccc(F)cc23)CC1 (centres unmarked) [Compound 60, 4-(5-fluorobenzo[d]isoxazol-3-yl)-N-(6-hydroxy-4,5,6,7-tetrahydrobenzo[d]thiazol-2-yl)piperidine-1-carboxamide] | 39 nM | 98 | 1 nM |  |
| CNC(=O)c1cnc(NC(=O)N2CCC(N3CCc4ccc(F)cc43)CC2)s1 [Compound 19, 2-(4-(6-fluoroindolin-1-yl)piperidine-1-carboxamido)-N-methylthiazole-5-carboxamide] | 93 nM | 94 | 206 nM |  |
| O=C(Nc1ncc(CO)s1)N1CCC(N2CCc3ccc(F)cc32)CC1 [Compound 24, 4-(6-fluoroindolin-1-yl)-N-(5-(hydroxymethyl)thiazol-2-yl)piperidine-1-carboxamide] | 88 nM | 97 | 154 nM |  |
| COC(=O)c1cnc(NC(=O)N2CCC(N3CCc4ccc(F)cc43)CC2)s1 [Compound 18, methyl 2-(4-(6-fluoroindolin-1-yl)piperidine-1-carboxamido)thiazole-5-carboxylate] | 363 nM | 62 | 221 nM |  |
| O=C(Nc1nc(CO)cs1)N1CCC(N2CCc3ccc(F)cc32)CC1 [Compound 25, 4-(6-fluoroindolin-1-yl)-N-(4-(hydroxymethyl)thiazol-2-yl)piperidine-1-carboxamide] | 52 nM | 94 | 42 nM |  |
| O=C(Nc1nc(CCO)cs1)N1CCC(c2noc3ccc(F)cc23)CC1 [Compound 54, 4-(5-fluorobenzo[d]isoxazol-3-yl)-N-(4-(2-hydroxyethyl)thiazol-2-yl)piperidine-1-carboxamide] | 29 nM | 95 | 38 nM |  |
| Cc1cnc(NC(=O)N2CCC(N3CCc4ccc(F)cc43)CC2)s1 [Compound 21, 4-(6-fluoroindolin-1-yl)-N-(5-methylthiazol-2-yl)piperidine-1-carboxamide] | 82 nM | 83 | 108 nM |  |
| Cc1csc(NC(=O)N2CCC(N3CCc4ccc(F)cc43)CC2)n1 [Compound 20, 4-(6-fluoroindolin-1-yl)-N-(4-methylthiazol-2-yl)piperidine-1-carboxamide] | 26 nM | 98 | 21 nM |  |
| O=C(Nc1nc2c(s1)COCC2)N1CCC(N2CCc3ccc(F)cc32)CC1 [Compound 61, N-(6,7-dihydro-4H-pyrano[4,3-d]thiazol-2-yl)-4-(6-fluoroindolin-1-yl)piperidine-1-carboxamide] | 204 nM | 99 | 17 nM |  |
| O=C1NCCn2nc(NC(=O)N3CCC(N4CCc5ccc(F)cc54)CC3)cc21 [Compound 37, 4-(6-fluoroindolin-1-yl)-N-(4-oxo-4,5,6,7-tetrahydropyrazolo[1,5-a]pyrazin-2-yl)piperidine-1-carboxamide] | 14 nM and 22 nM | 95 | 30 nM | 89% |
